Biological target: T1, RIPK2 enzyme (Homo sapiens, UniProt O43353)
T1 construct: purchased Carna 09-128
Assay: RIPK2 inhibition (ADP-Glo Kinase Assay)
Format: biochemical
Conditions: RIPK2 5 nM, ATP 150 μM, MBP substrate, read-out: RIPK2 IC50
Method in brief: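 Swine MBP substrate; compound and 5 nM RIPK2 first mixed for 30 min at room temperature; buffer pH 7.5 HEPES 50 mM with 10 mM MgCl2, 2 mM DTT, 1 mM EGTA, Brij-35, BSA.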

T1 sequence (O43353 1-299 limits assumed): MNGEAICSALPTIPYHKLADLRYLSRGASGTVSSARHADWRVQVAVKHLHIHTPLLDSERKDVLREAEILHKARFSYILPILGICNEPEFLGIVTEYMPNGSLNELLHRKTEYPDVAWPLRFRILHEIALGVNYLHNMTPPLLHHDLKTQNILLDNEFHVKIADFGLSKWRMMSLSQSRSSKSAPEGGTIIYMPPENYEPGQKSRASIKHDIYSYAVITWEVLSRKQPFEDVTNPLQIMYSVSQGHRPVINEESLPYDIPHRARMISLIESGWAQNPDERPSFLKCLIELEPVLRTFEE

| IC50 [nM] | Compound |
| --- | --- |
| < 2.5 | Cc1cc(CC(=O)Nc2cnn(C(C)(C)C)c2)ccc1Oc1ccnc2ccc(S(N)(=O)=O)cc12 [Compound 254, N-(1-(tert-butyl)-1H-pyrazol-4-yl)-2-(3-methyl-4-((6-sulfamoylquinolin-4-yl)oxy)phenyl)acetamide] |
| < 2.5 | Cc1cc(CC(=O)Nc2cnn(C(C)(C)C)c2)ccc1Oc1ccnc2ccc(OC3CCN(CC(F)F)CC3)cc12 [Compound 120, N-(1-(tert-butyl)-1H-pyrazol-4-yl)-2-(4-((6-((1-(2,2-difluoroethyl)piperidin-4-yl)oxy)quinolin-4-yl)oxy)-3-methylphenyl) acetamide] |
| < 2.5 | Cc1cc(CC(=O)Nc2cnn(C(C)(C)C)c2)ccc1Oc1ccnc2ccc(S(=O)(=O)N3CCNCC3)cc12 [Compound 119, N-(1-(tert-butyl)-1H-pyrazol-4-yl)-2-(3-methyl-4-((6-(piperazin-1-ylsulfonyl)quinolin-4-yl)oxy)phenyl)acetamide] |
| < 2.5 | Cc1c(Oc2ccnc3ccc(N(C)S(C)(=O)=O)cc23)ccc(CC(=O)Nc2cnn(C(C)(C)C)c2)c1F [Compound 278, N-(1-(tert-butyl)-1H-pyrazol-4-yl)-2-(2-fluoro-3-methyl-4-((6-(N-methylmethyl-sulfonamido)quinolin-4-yl)oxy)phenyl) acetamide] |
| < 2.5 | Cc1c(Oc2ccnc3ccc(N4C(=O)CCC4C)cc23)ccc(CC(=O)Nc2cnn(C(C)(C)C)c2)c1F (single isomer, unassigned) [Compound 297, N-(1-(tert-butyl)-1H-pyrazol-4-yl)-2-(2-fluoro-3-methyl-4-((6-(2-methyl-5-oxopyrrolidin-1-yl)quinolin-4-yl)oxy)phenyl) acetamide] |
| < 2.5 | Cc1cc(CC(=O)Nc2cnn(C(C)(C)C)c2)c(F)cc1Oc1ccnc2ccc(S(=O)(=O)C3CC3)cc12 [Compound 416, N-(1-(tert-butyl)-1H-pyrazol-4-yl)-2-(4-((6-(cyclopropylsulfonyl)quinolin-4-yl)oxy)-2-fluoro-5-methylphenyl)acetamide] |
| < 2.5 | Cc1cc(CC(=O)Nc2cnn(C(C)(C)C)c2)c(F)cc1Oc1ccnc2ccc(C(=O)N3CCOCC3)cc12 [Compound 378, N-(1-(tert-butyl)-1H-pyrazol-4-yl)-2-(2-fluoro-5-methyl-4-((6-(morpholine-4-carbonyl)quinolin-4-yl)oxy)phenyl) acetamide] |
| < 2.5 | CNC(=O)c1ccc2nccc(Oc3ccc(CC(=O)Nc4cnn(C(C)(C)C)c4)c(F)c3C)c2c1 [Compound 335, 4-(4-(2-((1-(tert-butyl)-1H-pyrazol-4-yl)amino)-2-oxoethyl)-3-fluoro-2-methyl-phenoxy)-N-methyl-quinoline-6-carboxamide] |
| < 2.5 | COC1CN(C(=O)c2ccc3nccc(Oc4cc(F)c(CC(=O)Nc5cnn(C(C)(C)C)c5)cc4C)c3c2)C1 [Compound 448, N-(1-(tert-butyl)-1H-pyrazol-4-yl)-2-(2-fluoro-4-((6-(3-methoxyazetidine-1-carbonyl)quinolin-4-yl)oxy)-5-methylphenyl)acetamide] |
| < 2.5 | Cc1c(Oc2ccnc3ccc(OC4CCNCC4)cc23)ccc(CC(=O)Nc2cnn(C(C)(C)C)c2)c1F [Compound 102, N-(1-(tert-butyl)-1H-pyrazol-4-yl)-2-(2-fluoro-3-methyl-4-((6-(piperidin-4-yloxy)quinolin-4-yl)oxy)phenyl) acetamide] |
| < 2.5 | Cc1cc(CC(=O)Nc2cnn(C(C)(C)C)c2)ccc1Oc1ccnc2ccc(-c3ncc(CO)cn3)cc12 [Compound 244, N-(1-(tert-butyl)-1H-pyrazol-4-yl)-2-(4-((6-(5-(hydroxymethyl)pyrimidin-2-yl)quinolin-4-yl)oxy)-3-methylphenyl)acetamide] |
| < 2.5 | Cc1cc(CC(=O)Nc2cnn(C(C)(C)C)c2)c(F)cc1Oc1ccnc2ccc(C(=O)N(C)C)cc12 [Compound 361, 4-(4-(2-((1-(tert-butyl)-1H-pyrazol-4-yl)amino)-2-oxoethyl)-5-fluoro-2-methyl-phenoxy)-N,N-dimethyl-quinoline-6-carboxamide] |
| < 2.5 | Cc1cc(CC(=O)Nc2cnn(C(C)(C)C)c2)ccc1Oc1ccnc2ccc(C(=O)N3CC(F)C3)cc12 [Compound 208, N-(1-(tert-butyl)-1H-pyrazol-4-yl)-2-(4-((6-(3-fluoro-azetidine-1-carbonyl)quinolin-4-yl)oxy)-3-methyl-phenyl) acetamide] |
| < 2.5 | Cc1cc(CC(=O)Nc2cnn(C(C)(C)C)c2)cc(F)c1Oc1ncnc2ccc(C(N)=O)cc12 [Compound 447, 4-(4-(2-((1-(tert-butyl)-1H-pyrazol-4-yl)amino)-2-oxoethyl)-2-fluoro-6-methylphenoxy)quinazoline-6-carboxamide] |
| < 2.5 | CC(C)(C)n1cc(NC(=O)Cc2ccc(Oc3ccnc4ccc(S(=O)(=O)C5CC5)cc34)c(C(F)F)c2)cn1 [Compound 418, N-(1-(tert-butyl)-1H-pyrazol-4-yl)-2-(4-((6-(cyclopropyl-sulfonyl)quinolin-4-yl)oxy)-3-(difluoromethyl)phenyl)acetamide] |
| 19.8 | COc1ccc2ncnc(Oc3cnc(CC(=O)Nc4cc(C(C)(C)C)cnn4)c(F)c3)c2c1 [Compound 31, N-(5-(tert-butyl)pyridazin-3-yl)-2-(3-fluoro-5-((6-methoxy-quinazolin-4-yl)oxy)pyridin-2-yl)acetamide] |
| < 2.5 | CN1CCC(Oc2ccc3nccc(Oc4ccc(CC(=O)Nc5cnn(C(C)(C)C)c5)c(F)c4)c3c2)CC1 [Compound 79, N-(1-(tert-butyl)-1H-pyrazol-4-yl)-2-(2-fluoro-4-((6-((1-methyl-piperidin-4-yl)oxy)quinolin-4-yl)oxy)phenyl) acetamide] |
| 37.3 | CC(C)(C)n1cc(NC(=O)Cc2ncc(Oc3ncnc4ccc(O[C@@H]5CCOC5)cc34)cc2F)cn1 [Compound 63, (R)-N-(1-(tert-butyl)-1H-pyrazol-4-yl)-2-(3-fluoro-5-((6-((tetrahydrofuran-3-yl)oxy)quinazolin-4-yl)oxy)pyridin-2-yl)acetamide] |
| < 2.5 | Cc1c(Oc2ccnc3ccc(C(=O)N4CCC(O)C4)cc23)ccc(CC(=O)Nc2cnn(C(C)(C)C)c2)c1F (single isomer, unassigned) [Compound 351, N-(1-(tert-butyl)-1H-pyrazol-4-yl)-2-(2-fluoro-4-((6-(3-hydroxy-pyrrolidine-1-carbonyl)quinolin-4-yl)oxy)-3-methyl-phenyl) acetamide] |
| < 2.5 | Cc1cc(CC(=O)Nc2cnn(C(C)(C)C)c2)ccc1Oc1ccnc2ccc(S(=O)(=O)N3CCN(C)CC3)cc12 [Compound 118, N-(1-(tert-butyl)-1H-pyrazol-4-yl)-2-(3-methyl-4-((6-((4-methylpiperazin-1-yl)sulfonyl)quinolin-4-yl)oxy)phenyl)acetamide] |
| < 2.5 | Cc1c(Oc2ccnc3ccc(S(=O)(=O)C4CCC4)cc23)ccc(CC(=O)Nc2cnn(C(C)(C)C)c2)c1F [Compound 284, N-(1-(tert-butyl)-1H-pyrazol-4-yl)-2-(4-((6-(cyclobutylsulfonyl)quinolin-4-yl)oxy)-2-fluoro-3-methylphenyl)acetamide] |
| < 2.5 | Cc1cc(CC(=O)Nc2cnn(C(C)(C)C)c2)ccc1Oc1ccnc2ccc(NS(C)(=O)=O)cc12 [Compound 264, N-(1-(tert-butyl)-1H-pyrazol-4-yl)-2-(3-methyl-4-((6-(methylsulfonamido)quinolin-4-yl)oxy)phenyl) acetamide] |
